{
  "source": "patent US9695131B2",
  "about": "“Substituted uracils as chymase inhibitors” (Bayer Pharma Aktiengesellschaft, priority 2013, dated 2017)",
  "origin": "cited, not measured here",
  "tested_on": "hamsters with myocardial infarction",
  "data": [
    {"smiles": "CCOc1ccccc1CC1C(=O)N(C(=O)NC(c2ccc(C)cc2)c2ccc(C)cc2)C1Oc1ccc(C(=O)O)cc1", "note": "(stereo not drawn) [BCEAB]", "values": [
      {"measurement": "chymase activity", "value": "reduced"},
      {"measurement": "haemodynamics", "value": "improved"},
      {"measurement": "mortality", "value": "reduced"}
    ]}
  ]
}
